According to patent publication US8012983B2, “Substituted triazolopyrazines useful for the treatment of degenerative and inflammatory diseases” (Galapagos NV, priority 2008, dated 2011):

Key:
MAPKAPK5 = molecular target: T1, MAPKAPK5 (Homo sapiens, UniProt Q8IW41); assay: MAPKAP-K5 FlashPlate kinase assay; format: biochemical; conditions: 0.6 μM ATP, 30 minutes, room temperature
T1 sequence (Q8IW41 1-471 isoform Q8IW41-2): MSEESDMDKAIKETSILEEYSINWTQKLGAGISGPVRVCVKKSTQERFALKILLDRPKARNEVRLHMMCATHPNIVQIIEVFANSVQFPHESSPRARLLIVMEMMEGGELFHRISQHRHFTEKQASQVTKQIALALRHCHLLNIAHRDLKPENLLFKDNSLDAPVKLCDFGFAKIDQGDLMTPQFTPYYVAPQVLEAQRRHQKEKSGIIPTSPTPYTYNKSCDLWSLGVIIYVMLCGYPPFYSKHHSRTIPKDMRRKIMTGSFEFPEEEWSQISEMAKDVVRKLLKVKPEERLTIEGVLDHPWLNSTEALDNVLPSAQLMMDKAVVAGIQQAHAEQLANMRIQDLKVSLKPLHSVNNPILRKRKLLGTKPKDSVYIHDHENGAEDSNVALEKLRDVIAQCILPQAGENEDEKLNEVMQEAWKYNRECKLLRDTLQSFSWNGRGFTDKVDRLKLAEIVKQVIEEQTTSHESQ
Procedure: MAPKAP-K5 reactions are performed in FlashPlate format using 0.1 or 0.2 μCi 33P-ATP; 0.6 μM ATP; 1 mU MAPKAP-K5; 3 μM MAPKAP-K5 peptide substrate, incubated at room temperature for 30 minutes.
The MAPKAP-K5 kinase reaction is performed in a 384 well polypropylene plate (Matrix Technologies) and then transferred to a streptavidin-coated 384 well flashplate (Perkin-Elmer). To wells containing 2 μL test compound or standard inhibitor, 13 μL Enzyme mix or diluent are added using a Hydra (Robbins Scientific). Reactions are started by addition of 10 μL of [2.5×] substrate cocktail using a Multidrop (Thermo-Labsystems), to give final concentrations in the assay of: • 1 mU MAPKAP-K5 • 3 μM MAPKAP-K5 peptide substrate • 0.6 μM ATP • 0.004 μCi [33P]-γ-ATP/μL • 1× reaction buffer
Plates are incubated at room temperature for 30 minutes. Reactions are terminated by the addition of 25 μL EDTA (50 mM) to each well using a Micro-fill (Biotek). Reactions are transferred to a streptavidin-coated flashplate using a Zymark robotic system. Plates are incubated for 60 minutes at room temperature. All wells are washed 3 times with 100 μl phosphate buffered saline using a Tecan plate washer. Radioactivity is determined by scintillation counting of the flashplate (empty wells) on a Packard TopCount.
Enzyme Mix: • Enzyme • 50 mM Tris Hcl (pH 7.5) • 0.1 mM EGTA • 2 mM DTT • 1 mg/mL BSA
Reaction Buffer: • 50 mM Tris Hcl (pH 7.5) • 0.1 mM EGTA • 10 mM Magnesium acetate • 2 mM DTT

[1] = test system: MMP13 expression in SW1353 chondrosarcoma cell line; assay: MMP13 assay: IL-1/OSM-driven MMP13 expression in SW1353 cells (MMP13 ELISA); format: cell-based; conditions: Homo sapiens, IL-1β and OSM, 48 hr
Procedure: The protocol of the MMP13 ELISA is described in section 4.1, then testing of compounds on release of IL-1/OSM-driven MMP13 expression in SW1353 chondrosarcoma cell line is described in section 4.2.
A 384 well format ELISA for measurement of MMP13 was developed. Various primary antibodies were tested, as well as various ELISA protocols. The following protocol is developed and validated to measure MMP13 levels in supernatant of cell cultures in 384 well plates.
Black maxisorb 384 well plates (Nunc 460518) are coated with 35 μl of a buffered solution containing 1.5 μg/mL anti-MMP13 antibody MAB511 (R&D systems). The antibody is diluted in carbonate-bicarbonate coating buffer (1.59 g Na2CO3 (Sigma S-7795) and 2.93 g NaHCO3 (Sigma S-5761) in 1 L MilliQ water, adjusted to pH 9.6). After overnight incubation at 4° C., wells are washed twice with 100 μL PBST (80 g NaCl, 2 g KCl (Sigma), 11.5 g Na2HPO4.7H2O and 2 g KH2PO4 in 10 L milliQ water; pH 7.4+0.05% Tween-20 (Sigma)) and blocked with 100 μL/well blocking buffer (5% non fat dry milk in PBS). After overnight incubation at 4° C., wells are washed twice with 100 μL PBST. The PBST is removed and 35 μL of sample is transferred to the ELISA plates. After 4 hr incubation at RT, plates are washed twice with PBST and incubated for 1 hr at 37° C. with 35 μL/well 1.5 mM APMA solution (a 10 mM APMA stock solution is prepared one day before (35.18 mg APMA (Sigma A-9563) in 10 mL 0.1M NaOH (Merck 1.06469.1000) and stored at 4° C. Before use, the 10 mM APMA stock solution is diluted to 1.5 mM in 1×APMA buffer (10× APMA buffer: 500 mM Tris (Roche 708976), 50 mM CaCl2 (Sigma C-5080), […] ZnCl2 (Sigma Z-0173), 1.5 M NaCl (Calbiochem 567441), 0.5% Brij35 (Sigma 430 AG-6) and adjust to pH 7.0). After activation of MMP13 by APMA, plates are washed again two times with 100 μL PBST/well and 35 μL of substrate solution is added to each well. Substrate solution is prepared as follows: OmniMMP Fluorescent substrate (Biomol P-126) stock solution (2 mM in DMSO, stored at −20° C.) is diluted in 1× OmniMMP buffer (10× OmniMMP buffer: 500 mM Hepes (Sigma H4034), 100 mM CaCl2 (Sigma C5080), 0.5% Brij35 (Sigma 430 AG-6; adjusted to pH 7.0) to a final concentration of 0.01 mM. After an overnight incubation at 37° C., the active MMP13 in the sample has cleaved the substrate and released fluorescence. Readout is performed on the EnVision (Perkin Elmer) using 320 nm excitation/405 nm emission filters.
Human chondrosarcoma cell line SW1353 was acquired from ATCC and grown in DMEM supplemented with 10% heat-inactivated FBS and 1× penicillin/streptomycin (Invitrogen) in a humidified 5% CO2 incubator at 37° C. Aliquots of the cells were frozen and cryopreserved in liquid nitrogen. Starting from a cryopreserved aliquot, cells are further grown by sub-culturing at a 1/5-1/8 ratio twice a week by trypsinisation.
Starting from the compound master stocks (all at 10 mM concentration in 100% DMSO) a 3-fold serial dilution is made in 96-well plates in 100% DMSO. Then, plates are futher diluted 50-fold in M199 medium supplemented with 1% heat-inactivated FBS to obtain an intermediate work stock.
At day 1, SW1353 cells are seeded in 96-well plates (flat bottom, tissue culture treated, Greiner) at a density of 15000 cells/well in 120 μL growth medium. The next day, 15 μL compound out of the intermediate work stock is added. After an incubation period of 60 minutes, which allows the compounds to equilibrate and enter the cells, cells are stimulated with a mixture of IL-1β and OSM, added in a volume of 15 μL to obtain final concentrations of 1 ng/ml IL-1β and 25 ng/ml OSM. For that, stocks of IL-1 (10 μg/ml) and OSM (25 μg/ml) (both PeproTech) were diluted to 10 ng/ml and 250 ng/ml respectively, in M199 medium supplemented with 1% FBS. After incubation for 48 hr, the cell supernatant was harvested and an appropriate dilution was processed in the MMP13 ELISA as described above, delivering raw data (RFU: relative fluorescence units). […]

[2] = test system: MMP1 expression by activated synovial fibroblasts (RASFs); assay: 'MMP assay': complex trigger-induced MMP1 expression by synovial fibroblasts (MMP1 ELISA); format: cell-based; conditions: Homo sapiens, Fibroblast; RASFs, complex trigger, 48 hrs; read-out: MMP1 IC50
Procedure: A 384-well format ELISA for measurement of MMP1 is developed. Various primary antibodies are tested, as well as various ELISA protocols. The following protocol is developed and validated to measure MMP1 levels in SF supernatant in 384 well plates: white Lumitrac 600 384 well plates (Greiner) are coated with 2 μg/mL anti-MMP1 antibody MAB1346 (Chemicon). The antibody is diluted in buffer 40 (1.21 g Tris base (Sigma), 0.58 g NaCl (Calbiochem) and 5 ml 10% NaN3 (Sigma) in 1 L milliQ water and adjusted to pH 8.5). After overnight incubation at 4° C., plates are washed with PBS (80 g NaCl, 2 g KCl (Sigma), 11.5 g Na2HPO4.7H2O and 2 g KH2PO4 in 10 L milliQ; pH 7.4) and blocked with 100 μL/well Casein buffer (2% Casein (VWR International) in PBS). Next day, casein buffer is removed from ELISA plates and replaced by 50 μL/well EC buffer (4 g casein, 2.13 g Na2HPO4 (Sigma), 2 g bovine albumin (Sigma), 0.69 g NaH2PO4.H2O (Sigma), 0.5 g CHAPS (Roche), 23.3 g NaCl, 4 ml 0,5 M EDTA pH 8 (Invitrogen), 5 ml 10% NaN3 in 1 L milliQ and adjusted to pH 7.0). 0.25 mM DTT (Sigma) is added to the thawed samples plates. After removal of the EC buffer, 20 μL of sample is transferred to the ELISA plates. After overnight incubation at 4° C. plates are washed twice with PBS and once with PBST (PBS with 0.05% Tween-20 (Sigma)) and incubated with 35 μL/well biotinylated anti-MMP1 antibody solution (R&D). This secondary antibody is diluted in buffer C (0.82 g NaH2PO4.H2O, 4.82 g Na2HPO4, 46.6 g NaCl, 20 g bovine albumin and 4 mL 0,5M EDTA pH 8 in 2 L milliQ and adjusted to pH 7.0) at a concentration of 5 μg/mL. After 2 h of incubation at RT, plates are washed as described above and incubated with 50 μL/well streptavidin-HRP conjugate (Biosource). Streptavidin-HRP conjugate is diluted in buffer C at a concentration of 0.25 μg/mL. After 45 min, plates are washed as described above and incubated for 5 min with 50 μL/well BM Chem ELISA Substrate (Roche). Readout is performed on the Luminoscan Ascent Luminometer (Labsystems) with an integration time of 200 msec or with an Envision reader (Perkin Elmer).
The increase of MMP1 expression by SFs upon treatment with cytokines relevant in the field of RA (TNF-α, IL1β and OSM) or a combination thereof is shown in FIG. 2 as white bars. For this experiment, SFs are seeded in 96 well plates, 3,000 cells/well. 24 h later, the medium is changed to M199 medium supplemented with 1% FBS. One day after the medium change, cytokines or combinations thereof are added to the cultures, each cytokine being added to a final concentration of 25 ng/mL. 72 h after cytokine addition, the supernatant is collected and processed in the MMP1 ELISA as described in the protocol given above. In parallel with this experiment, SFs are triggered, using the same protocol, with the supernatant of THP1 cells (2-fold diluted in M199+1% FBS) treated with the same cytokines or combinations of cytokines for 48 h in M199 medium+1% FBS. The induction of the MMP1 expression by SFs triggered with the supernatants of TNF-α-treated THP1 cells is stronger (>4.5 fold induction) as compared to the SFs triggered with recombinant TNF-α alone (3-fold induction) and almost equals the 5-fold induction obtained by a mixture of 3 purified cytokines (TNF-α, IL1βb, OSM). […] As the role of TNF-α in the RA pathogenesis is validated (TNF-α-blockers such as Infliximab and Etanercept show some efficacy in the treatment of RA patients) and the THP-1 cells are representative for monocytes/macrophages present in the joint of RA patients, the TNF-α-based trigger mixture prepared by contacting THP-1 cells with TNF-α will contain factors present in the joints of RA patients and subsequently is relevant to RA. This TNF-α-based complex trigger, further referred to as the ‘complex trigger’, will further be used as basis for the ‘MMP assay’. […]

Row | SMILES | IC50 (MAPKAPK5) [nM] | IC50 [1] [nM] | IC50 [2] [nM]
1 | CC(C)N1C[C@@H]2C[C@H]1CN2c1ccc(Nc2ncc(-c3coc(C(N)=O)c3)n3ncnc23)cn1 [Compound 7, 4-{8-(6-((1S,4S)-5-isopropyl-2,5-diazabicyclo[2.2.1]heptan-2-yl)pyridin-3-ylamino)-[1,2,4]triazolo[1,5-a]pyrazin-5-yl}-furan-2-carboxamide] | 0.01 to 100 | 1 to 500 | –
2 | CC(C)N1CC2CCC1CN2c1ccc(Nc2ncc(-c3coc(C(N)=O)c3)n3ccnc23)cc1 (stereo not drawn) [Compound 10, 4-{8-(4-(5-isopropyl-1-2,5-diazabicyclo[2.2.2]octan-2-yl)phenylamino)-imidazo[1,2-a]pyrazin-5-yl}-furan-2-carboxamide] | 101 to 500 | – | > 1000
3 | CC(C)N1CC2CCC(C1)N2c1ccc(Nc2ncc(-c3coc(C(N)=O)c3)n3ncnc23)cc1 [Compound 13, 4-{8-(4-(3-isopropyl-3,8-diazabicyclo[3.2.1]octan-8-yl)phenylamino)[1,2,4]-triazolo[1,5-a]pyrazin-5-yl}-furan-2-carboxamide] | 0.01 to 100 | > 1000 | –
4 | CC(C)N1C2CCC1CN(c1ccc(Nc3ncc(-c4coc(C(N)=O)c4)n4ccnc34)cc1)C2 [Compound 14, 4-{8-(4-(8-isopropyl-3,8-diazabicyclo[3.2.1]octan-3-yl)phenylamino)-imidazo[1,2-a]pyrazin-5-yl}-furan-2-carboxamide] | 101 to 500 | – | > 1000
5 | CC(C)N1C[C@H]2C[C@@H]1CN2c1ccc(Nc2ncc(-c3coc(C(N)=O)c3)n3ncnc23)cc1 [Compound 27, 4-[8-({4-[(1R,4R)-5-isopropyl-2,5-diazabicyclo[2.2.1]hept-2-yl]phenyl}amino)[1,2,4]triazolo[1,5-a]pyrazin-5-yl]-2-furamide] | 0.01 to 100 | – | –
